What was measured:
Mus musculus [1] = assay: Inhibition of DMBA-induced/TPA-promoted skin carcinogenesis in ICR mouse assessed as reduction in tumor burden at 0.0025% topically applied qd treated one week before DMBA-TPA challenge after 20 weeks relative to control; type: functional
Mus musculus [2] = assay: Toxicity in ICR mouse at 0.0025%, po; type: organism-based; details: in vivo
Mus musculus [3] = assay: Inhibition of peroxynitrite-induced/TPA promoted skin carcinogenesis in HOS-HR-1 mouse assessed as decrease in tumor burdon at 0.0025%, po treated one week before peroxynitrite-TPA challenge after 20 weeks relative to control; type: functional
Mus musculus [4] = assay: Toxicity in HOS-HR-1 mouse at 0.0025%, po; type: organism-based; details: in vivo
Mus musculus [5] = assay: Inhibition of peroxynitrite-induced/TPA promoted skin carcinogenesis in HOS-HR-1 mouse assessed as increase in tumor latency period at 0.0025%, po treated one week before peroxynitrite-TPA challenge after 20 weeks relative to control; type: functional
Mus musculus [6] = assay: Inhibition of peroxynitrite-induced/TPA promoted skin carcinogenesis in HOS-HR-1 mouse assessed as decrease in tumor incidence at 0.0025%, po treated one week before peroxynitrite-TPA challenge after 20 weeks relative to control; type: functional

Row | SMILES | inhibition (INH) (Mus musculus [1]) | Activity (Mus musculus [2]) | inhibition (INH) (Mus musculus [3]) | Activity (Mus musculus [4]) | inhibition (INH) (Mus musculus [5]) | inhibition (INH) (Mus musculus [6])
1 | CCc1cccc2c3c([nH]c12)C(CC)(CC(=O)O)OCC3 (stereo unspecified) [ETODOLAC] | 40% | Non-toxic |  |  |  | 
2 | CCCCC1C(=O)N(c2ccccc2)N(c2ccc(O)cc2)C1=O (stereo unspecified) [OXYPHENBUTAZONE ANHYDROUS] |  |  | >50% | Non-toxic | 29% | >20%
